Consider two compounds from ChEMBL document CHEMBL5614464, “Geldanamycin, a Naturally Occurring Inhibitor of Hsp90 and a Lead Compound for Medicinal Chemistry” (J Med Chem, 2024).

A word on the IC50: it is the point on the concentration scale where inhibition reaches its midpoint.

The nature of assay [1]: Inhibition of recombinant HSP90 (unknown origin). Also noted: species or system Homo sapiens.
In assay [2] the test system is PC-3. Description: Antiproliferative activity against human PC-3 cells assessed as reduction in cell viability incubated for 48 hrs by MTT assay. It counts as functional, cell-based. The settings on record: PC-3, 48 h. For orientation: Formazan colour is commonly taken as a measure of viable cells.
Assay [3] relates to SK-OV-3. Nature of the assay: Antiproliferative activity against human SK-OV-3 cells assessed as reduction in cell viability incubated for 48 hrs by MTT assay. It counts as functional, cell-based. The conditions noted are these: SK-OV-3, 48 h.

SMILES strings stand for the structures.

On to `CO[C@H]1/C=C\C=C(/C)C(=O)NC2=CC(=O)C(c3ccccc3)=C(C[C@@H](C)C[C@H](OC)[C@H](O)[C@@H](C)/C=C(\C)[C@@H]1OC(N)=O)C2=O`, for which, in assay [1], the IC50 amounted to 1700 nM. On to `COC1=C2C[C@@H](C)C[C@H](OC)[C@H](O)[C@@H](C)/C=C(\C)[C@H](OC(N)=O)[C@@H](OC)/C=C\C=C(/C)C(=O)NC(=CC1=O)C2=O` [GELDANAMYCIN], for which the IC50 in assay [2] and in assay [3] was 580 nM throughout.
